Laboratory results reported in PubChem BioAssay (NCI).
“And” between values parts separate entries of the source, which are not always exact repeats. Identical values can stand only once.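 Grown in 96-well plates, cells were treated for 48 hours with each compound at five concentrations. Insufficient inhibition: endpoint recorded as highest concentration tested. GI50 is the concentration that inhibits growth by half. TGI is the concentration that stops growth completely.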

Key:
Assay in all cases: growth of human tumour cells (NCI), 48 h
[1] = tested on: 786-0 renal
[2] = tested on: CAKI-1 renal
[3] = tested on: CCRF-CEM leukemia
[4] = tested on: COLO 205 colon
[5] = tested on: EKVX NSCLC
[6] = tested on: HT29 colon
[7] = tested on: K-562 leukemia
[8] = tested on: KM12 colon
[9] = tested on: NCI-H23 lung
[10] = tested on: OVCAR-5 ovarian
[11] = tested on: RPMI-8226 leukemia
[12] = tested on: SF-268 CNS
[13] = tested on: SK-MEL-28 melanoma
[14] = tested on: SN12C renal
[15] = tested on: UACC-257 melanoma
[16] = tested on: OVCAR-4 ovarian
[17] = tested on: BT-549 breast
[18] = tested on: DU-145 prostate

Compound	TGI [1]	TGI [2]	TGI [3]	TGI [4]	TGI [5]	TGI [6]	TGI [7]	TGI [8]	TGI [9]	GI50 [10]	TGI [10]	TGI [11]	TGI [12]	TGI [13]	TGI [14]	GI50 [15]	TGI [15]	TGI [16]	TGI [17]	TGI [18]
COC(=O)CC(C(C(C)=O)C(=O)OCc1ccccc1)N1C(=O)OC(c2ccccc2)C1c1ccccc1 (configuration not stated)	> 100 µM	> 100 µM	> 100 µM	> 100 µM	> 100 µM	> 100 µM	> 100 µM	> 100 µM	> 100 µM	> 100 µM and 34.3 µM	> 100 µM	> 100 µM	> 100 µM	> 100 µM	> 100 µM	23.6 µM and 55.3 µM	> 100 µM			
O=C(NCc1ccc2ccc3cccnc3c2n1)c1ccc[n+](Cc2ccccc2)c1	> 100 µM		> 100 µM	> 100 µM	> 100 µM	> 100 µM	> 100 µM	> 100 µM	> 100 µM		> 100 µM	> 100 µM	> 100 µM	> 100 µM	> 100 µM		> 100 µM	> 100 µM		
COC(=O)[C@H](Cc1c[nH]c2ccccc12)NC(=O)c1ccccc1I	34.6 µM	50.6 µM		33.3 µM	> 100 µM	> 100 µM	> 100 µM	> 100 µM			> 100 µM		47 µM	> 100 µM	> 100 µM		35.1 µM	> 100 µM	> 100 µM	53.9 µM
CC[n+]1c(/C=C/c2ccc(N(CCCl)CCCl)cc2)ccc2cc(I)ccc21		6.19 µM			12 µM	8.19 µM	1.6 µM		23.5 µM		7.77 µM	1.72 µM			2.71 µM		2.61 µM	2.29 µM		
Cc1ccc(C(=O)N/N=C2/C(=O)c3c4ccccc4cc4cccc2c34)cc1	74.1 µM	> 81 µM	> 100 µM	> 100 µM	> 100 µM	97.5 µM	> 100 µM	> 84.3 µM	77.8 µM		> 100 µM	> 87.1 µM	88.2 µM	97.4 µM	76.5 µM		> 100 µM	> 100 µM	> 100 µM	
C[n+]1cn(-c2nc3ccccc3nc2[N-]S(=O)(=O)c2ccccc2)c2ccccc21	> 100 µM	> 100 µM	> 100 µM	> 100 µM	> 100 µM	> 100 µM	> 100 µM	> 100 µM	> 100 µM		> 100 µM	> 100 µM	> 100 µM	> 100 µM	> 100 µM		> 100 µM	> 100 µM	> 100 µM	
CCn1c(CSc2nc(-c3ccccc3)c(-c3ccccc3)[nH]2)n[nH]c1=S	> 100 µM		> 100 µM	> 100 µM	> 100 µM	> 100 µM		> 100 µM	> 100 µM		> 100 µM	> 100 µM	> 100 µM	> 100 µM	> 100 µM		> 100 µM	> 100 µM		
C[C@H]1O[C@@H](C(C)(C)C)OC(=O)[C@@H]1C(OC(=O)c1ccccc1)c1cccc2ccccc12 (some centres not stated)	> 100 µM	> 100 µM	> 100 µM	> 100 µM	> 100 µM	> 100 µM	> 100 µM	> 100 µM	> 100 µM		> 100 µM	> 100 µM	> 100 µM	> 100 µM	> 100 µM		> 100 µM	> 100 µM	> 100 µM	
Cc1ccc(C2C(Cl)C(=O)N2NC(=O)c2ccc(N)cc2)cc1 (configuration not stated)	37.8 µM	38.3 µM	39.2 µM	44.6 µM	49.7 µM	39.9 µM	61.2 µM	> 100 µM	38.3 µM		47.9 µM	78.9 µM		26 µM	52.2 µM		66.1 µM	> 100 µM		
COc1ccc(/C(Cl)=C(\C=O)c2ccc(Cl)cc2)cc1OC		49.2 µM	10.3 µM	13.2 µM	> 100 µM	20.8 µM	71.3 µM		8.36 µM		> 100 µM	62.9 µM	> 100 µM		16.6 µM		37.4 µM	73.6 µM		
COc1cc(OC)c(OC)cc1/C=C/c1cc[n+](C)c2ccccc12	> 100 µM	> 100 µM	80.9 µM	19 µM	> 100 µM	> 100 µM	19.4 µM	75 µM	97.4 µM		> 100 µM	> 100 µM	> 100 µM	> 100 µM			50.9 µM	> 100 µM		> 100 µM
O=C1NC(=Nc2ccccc2)C(=Nc2ccccc2)N1c1ccccc1	29 µM	31.7 µM	76.3 µM	28 µM	31.5 µM	29.6 µM	72.2 µM	32.8 µM	30.8 µM		32.7 µM	76.8 µM	34 µM	28.4 µM	30.5 µM		29.8 µM	33.1 µM		25.2 µM
C#CC(O)/C=C/C(O)CCCC(O)CC#CC(O)C#CCCCCC(O)/C=C/CCCC(O)/C=C/CCCCCCCCCCCCCC(O)C(O)C#CC(=O)O (configuration not stated)	> 25 µM	> 25 µM	> 25 µM	> 25 µM	> 25 µM	> 25 µM	> 25 µM	> 25 µM	> 25 µM		> 25 µM	> 25 µM	> 25 µM	> 25 µM	> 25 µM		> 25 µM	> 25 µM		> 25 µM
C=CCN(CCN(CC=C)S(=O)(=O)c1ccc(C)cc1)S(=O)(=O)c1ccc(C)cc1			> 100 µM	> 100 µM		> 100 µM	> 100 µM	> 100 µM	> 100 µM				> 100 µM	> 100 µM	> 100 µM		> 100 µM	> 100 µM		> 100 µM
